Results from PMC6095626, “Screening of the Pathogen Box for inhibitors with dual efficacy against Giardia lamblia and Cryptosporidium parvum” (PLoS Neglected Tropical Diseases, 2018).

Columns and labels:
[1] = system: G. lamblia trophozoites (luciferase expressing, WBC6); assay: microbe, parasite or virus in culture; assay type: cell-based, Giardia lamblia; conditions: for Giardia (16 uM) Mean % inhibition: initial Pathogen Box screen, single concentration 16 µM, inhibition compared to DMSO wells
In short: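 Luciferase-expressing WBC6 trophozoites plated at 250,000 cells/mL, compounds added 1:1, incubated anaerobically (GasPak bags) at 37 °C for 24 h; viability read by bioluminescence, with duplicate plates counted on a MOXI Z cell counter. Metronidazole control serially diluted 1:2 from 40 μM.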

[2] = system: C. parvum (UGA1 Nluc expressing strain in HCT-8 cells); assay: microbe, parasite or virus in culture; assay type: cell-based, Cryptosporidium parvum; conditions: for Crypto (10 uM) Mean % inhibition: initial Pathogen Box screen, single concentration 10 µM, inhibition compared to DMSO wells
In short: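 HCT-8 monolayers grown 48 h to 90–100% confluence, treated with compound at 10 μM or serial dilutions, then infected with bleach-treated UGA1 Nluc C. parvum oocysts.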

CCCCN(CCCC)c1c(C#N)cc(S(=O)(=O)Nc2ccccc2)cc1C#N [MMV688467]
Giardia (16 uM) Mean % inhibition [1]: 60% | Crypto (10 uM) Mean % inhibition [2]: X* (Mean or standard deviation are negative but not significantly different from the control to be a growth promoter)

CCn1cnc2c(Nc3cc(F)cc(F)c3)nc(C#N)nc21 [MMV676881]
Giardia (16 uM) Mean % inhibition [1]: 9% | Crypto (10 uM) Mean % inhibition [2]: 53%

CN(C)CCNC(=O)N1CCCN(c2ncnc3cc(-c4ccccc4)sc23)CC1 [MMV024195]
Giardia (16 uM) Mean % inhibition [1]: 31% | Crypto (10 uM) Mean % inhibition [2]: 15%

COc1cccc(-n2nnnc2S(C)(=O)=O)c1 [MMV272144]
Giardia (16 uM) Mean % inhibition [1]: X* (Mean or standard deviation are negative but not significantly different from the control to be a growth promoter) | Crypto (10 uM) Mean % inhibition [2]: X* (Mean or standard deviation are negative but not significantly different from the control to be a growth promoter)

O=C(NC1CCCCC1)N1CCN(Cc2ccc3c(c2)OCO3)CC1 [MMV676444]
Giardia (16 uM) Mean % inhibition [1]: 30% | Crypto (10 uM) Mean % inhibition [2]: 67%

CC(C)(C(=O)Nc1ccc(F)cc1)n1cc(-c2ccccc2F)cn1 [MMV687239]
Giardia (16 uM) Mean % inhibition [1]: 39% | Crypto (10 uM) Mean % inhibition [2]: 59%

Cc1ccccc1C(=O)N1NC(=Nc2ccccc2)SC1(C)C [MMV688771]
Giardia (16 uM) Mean % inhibition [1]: 51% | Crypto (10 uM) Mean % inhibition [2]: 82%

Nc1ccc2ncnc(Nc3ccc(OCc4cccc(F)c4)c(Cl)c3)c2c1 [MMV688273]
Giardia (16 uM) Mean % inhibition [1]: 51% | Crypto (10 uM) Mean % inhibition [2]: X* (Mean or standard deviation are negative but not significantly different from the control to be a growth promoter)

Cc1ccccc1CN1CCC(O)(c2ccc(Cl)c(C(F)(F)F)c2)CC1 [MMV688846]
Giardia (16 uM) Mean % inhibition [1]: 35% | Crypto (10 uM) Mean % inhibition [2]: X* (Mean or standard deviation are negative but not significantly different from the control to be a growth promoter)

CCCNC(=O)N1CCC2(CC1)CC(=O)c1cc(C)ccc1O2 [MMV085230]
Giardia (16 uM) Mean % inhibition [1]: 63% | Crypto (10 uM) Mean % inhibition [2]: 62%

CCCn1nnc(NC(=O)COc2ccc(C3CCCCC3)cc2)n1 [MMV676597]
Giardia (16 uM) Mean % inhibition [1]: 31% | Crypto (10 uM) Mean % inhibition [2]: 60%

COc1cncc(-c2cncc(N3CCN(c4ccncc4)CC3)n2)c1 [MMV085071]
Giardia (16 uM) Mean % inhibition [1]: 19% | Crypto (10 uM) Mean % inhibition [2]: 47%

CCOc1ccccc1C(=O)Nc1cccc(-c2nc3ncccn3c2C)c1 [MMV019790]
Giardia (16 uM) Mean % inhibition [1]: X* (Mean or standard deviation are negative but not significantly different from the control to be a growth promoter) | Crypto (10 uM) Mean % inhibition [2]: X* (Mean or standard deviation are negative but not significantly different from the control to be a growth promoter)

Brc1c(-c2ccc3c(c2)OCO3)nc2ncccn12 [MMV676377]
Giardia (16 uM) Mean % inhibition [1]: 40% | Crypto (10 uM) Mean % inhibition [2]: X* (Mean or standard deviation are negative but not significantly different from the control to be a growth promoter)

CCc1nc2ccccc2n1CC(O)COc1cc(C)ccc1Cl (centres unmarked) [MMV676449]
Giardia (16 uM) Mean % inhibition [1]: 46% | Crypto (10 uM) Mean % inhibition [2]: 37%

FC(F)(F)c1ccc(N(c2cccnc2)C2CCN(c3ccc(C(F)(F)F)cn3)CC2)cc1 [MMV689243]
Giardia (16 uM) Mean % inhibition [1]: 11% | Crypto (10 uM) Mean % inhibition [2]: X* (Mean or standard deviation are negative but not significantly different from the control to be a growth promoter)

O=C(Nc1ccccc1)c1ccc(-c2cc3ccncc3cc2OC2CCNCC2)s1 [MMV024035]
Giardia (16 uM) Mean % inhibition [1]: 66% | Crypto (10 uM) Mean % inhibition [2]: 27%

CS(=O)(=O)N1CCC(Cn2nc(Cc3cccc4ccccc34)c3c(N)ncnc32)CC1 [MMV676050]
Giardia (16 uM) Mean % inhibition [1]: 18% | Crypto (10 uM) Mean % inhibition [2]: 79%

COc1ccc(C2=NCCN2)cc1-c1cn(-c2cccc(C3=NCCN3)c2)nn1 [MMV688547]
Giardia (16 uM) Mean % inhibition [1]: 33% | Crypto (10 uM) Mean % inhibition [2]: 45%

O=C(NCCc1ccccc1)c1cc(-c2cccnc2)cnc1NCC1CC1 [MMV026490]
Giardia (16 uM) Mean % inhibition [1]: 12% | Crypto (10 uM) Mean % inhibition [2]: X* (Mean or standard deviation are negative but not significantly different from the control to be a growth promoter)

Cc1cc(C)nc(-n2nc(C)cc2Nc2ccccc2)n1 [MMV062221]
Giardia (16 uM) Mean % inhibition [1]: 35% | Crypto (10 uM) Mean % inhibition [2]: 50%

N=C(N)c1ccc(OCCCCCOc2ccc(C(=N)N)cc2)cc1 [MMV000062, pentamidine, reference compound]
G. lamblia inhibition of parasite growth in the initial screen ([1]; 16 μM, 24 hours): did not show up in the screen | inhibition at 16 µM ([1]; Giardia duodenalis, read-out: Giardia (16 uM) Mean % inhibition): 9% | inhibition at 10 µM ([2]; Cryptosporidium parvum, HCT-8, read-out: Crypto (10 uM) Mean % inhibition): 50%

Nc1c2c(nc3sc4c(c13)CCCC4)CCCC2 [MMV676588]
Giardia (16 uM) Mean % inhibition [1]: 26% | Crypto (10 uM) Mean % inhibition [2]: 48%

FC(F)(F)c1cc(NCCc2ccccc2)nc(-c2ccccn2)n1 [MMV659010]
Giardia (16 uM) Mean % inhibition [1]: 41% | Crypto (10 uM) Mean % inhibition [2]: 15%

Cc1cccnc1NC(=O)c1cccc(OCc2c(C)noc2C)c1 [MMV688793]
Giardia (16 uM) Mean % inhibition [1]: 45% | Crypto (10 uM) Mean % inhibition [2]: 63%

O=C(C1CCN(c2nnc(-n3cccc3)s2)CC1)N1CCC(Cc2ccccc2)CC1 [MMV676478]
Giardia (16 uM) Mean % inhibition [1]: 9% | Crypto (10 uM) Mean % inhibition [2]: X* (Mean or standard deviation are negative but not significantly different from the control to be a growth promoter)

COc1cc2ncnc(NC3CCN(Cc4ccccc4)CC3)c2cc1OC [MMV006741]
Giardia (16 uM) Mean % inhibition [1]: 35% | Crypto (10 uM) Mean % inhibition [2]: 45%

COc1ccc(N(CCc2cccc(C)n2)C(=O)C2CCCCC2)cc1 [MMV675996]
Giardia (16 uM) Mean % inhibition [1]: 16% | Crypto (10 uM) Mean % inhibition [2]: X* (Mean or standard deviation are negative but not significantly different from the control to be a growth promoter)

Cc1cc(Cl)ccc1NC(=O)CCc1ccc(S(=O)(=O)NCC(C)C)cc1 [MMV161996]
Giardia (16 uM) Mean % inhibition [1]: X* (Mean or standard deviation are negative but not significantly different from the control to be a growth promoter) | Crypto (10 uM) Mean % inhibition [2]: 41%

Nc1nc2cc(-c3cncc(Oc4ccc(F)cc4)c3)ccc2[nH]1 [MMV687248]
Giardia (16 uM) Mean % inhibition [1]: 22% | Crypto (10 uM) Mean % inhibition [2]: 72%

O=C(NC1CC1)c1ccc(N2CCOc3ccc(Cl)cc32)s1 [MMV020537]
Giardia (16 uM) Mean % inhibition [1]: 4.66% | Crypto (10 uM) Mean % inhibition [2]: 55%

CC(C)(C)OC(=O)N1CCN(c2nccc(-c3ccc(-c4ccc(Cl)cc4)s3)n2)CC1 [MMV688416]
Giardia (16 uM) Mean % inhibition [1]: 55% | Crypto (10 uM) Mean % inhibition [2]: 41%

CNC(=O)C1Cc2c([nH]c3cc(Cl)ccc23)C2(CCN(CCc3ccccc3)CC2)N1 (centres unmarked) [MMV031011]
Giardia (16 uM) Mean % inhibition [1]: 81% | Crypto (10 uM) Mean % inhibition [2]: 72%

NCCC(O)C(=O)N[C@@H]1C[C@H](N)[C@@H](OC2O[C@H](CN)[C@@H](O)[C@H](O)[C@H]2O)[C@H](O)C1OC1O[C@H](CO)[C@@H](O)[C@H](N)[C@H]1O (some centres unmarked) [MMV687796]
Giardia (16 uM) Mean % inhibition [1]: X* (Mean or standard deviation are negative but not significantly different from the control to be a growth promoter) | Crypto (10 uM) Mean % inhibition [2]: 82%

CS(=O)(=O)c1cccc(-c2cnc3[nH]cc(-c4ccc(CCC(=O)O)cc4)c3c2)c1 [MMV026020]
Giardia (16 uM) Mean % inhibition [1]: 19% | Crypto (10 uM) Mean % inhibition [2]: X* (Mean or standard deviation are negative but not significantly different from the control to be a growth promoter)
